Assays:
Assay in all cases: relative viability (nuclei count vs DMSO), 5 days (fraction); higher = more cells survive
Shikonin + Lapatinib = compound: CC(C)=CC[C@@H](O)C1=CC(=O)c2c(O)ccc(O)c2C1=O [Shikonin] + CS(=O)(=O)CCNCc1ccc(-c2ccc3ncnc(Nc4ccc(OCc5cccc(F)c5)c(Cl)c4)c3c2)o1 [Lapatinib] (partner 2 µM)
Outline: (§1)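 Relative viability was taken as the ratio of nuclei in treated wells to nuclei in vehicle wells. Lung cancer cell lines in 1536-well plates received compounds by pin tool one day after seeding, either one drug alone or a fixed anchor-drug dose plus five library-drug doses (not always all listed) in √10 steps. Nuclei were counted on 4× images after 5 days of treatment, and values are medians of duplicate plates.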

[1] = compound: CC(C)N(CCCNC(=O)Nc1ccc(C(C)(C)C)cc1)C[C@H]1O[C@@H](n2ccc3c(N)ncnc32)[C@H](O)[C@@H]1O + Cc1cc(Nc2cc(N3CCN(C)CC3)nc(Sc3ccc(NC(=O)C4CC4)cc3)n2)n[nH]1 [Tozasertib] (partner 0.1 µM)
Outline: as §1

[2] = compound: CC(C)N(CCCNC(=O)Nc1ccc(C(C)(C)C)cc1)C[C@H]1O[C@@H](n2ccc3c(N)ncnc32)[C@H](O)[C@@H]1O + Cc1nc(NC(=O)N2CCC[C@H]2C(N)=O)sc1-c1ccnc(C(C)(C)C(F)(F)F)c1 [Alpelisib] (partner 2 µM)
Outline: as §1

[3] = compound: CC(C)N(CCCNC(=O)Nc1ccc(C(C)(C)C)cc1)C[C@H]1O[C@@H](n2ccc3c(N)ncnc32)[C@H](O)[C@@H]1O + O=C(c1cc(Cc2n[nH]c(=O)c3ccccc23)ccc1F)N1CCN(C(=O)C2CC2)CC1 [Olaparib] (partner 8 µM)
Outline: as §1

Cell Line | relative viability (Shikonin + Lapatinib; first compound 0.01 µM) | relative viability (Shikonin + Lapatinib; first compound 0.1 µM) | relative viability (Shikonin + Lapatinib; first compound 0.3162 µM) | relative viability (Shikonin + Lapatinib; first compound 1 µM) | relative viability ([1]; first compound 0.08 µM) | relative viability ([1]; first compound 0.253 µM) | relative viability ([1]; first compound 0.8 µM) | relative viability ([1]; first compound 2.53 µM) | relative viability ([1]; first compound 8 µM) | relative viability ([2]; first compound 0.08 µM) | relative viability ([2]; first compound 0.253 µM) | relative viability ([2]; first compound 0.8 µM) | relative viability ([2]; first compound 2.53 µM) | relative viability ([2]; first compound 8 µM) | relative viability ([3]; first compound 0.08 µM) | relative viability ([3]; first compound 0.253 µM) | relative viability ([3]; first compound 0.8 µM) | relative viability ([3]; first compound 2.53 µM) | relative viability ([3]; first compound 8 µM)
LXF-289 | 0.959 | 1 | 0.906 | 0.945 | 0.167 | 0.199 | 0.131 | 0.176 | 0.174 | 1.01 | 1.05 | 1.07 | 1.09 | 1.04 | 1.02 | 1.08 | 1.1 | 1.1 | 0.991
NCI-H23 | 1.2 | 1.14 | 1.13 | 1.03 | 0.41 | 0.378 | 0.281 | 0.355 | 0.546 | 0.687 |  | 0.695 | 0.684 | 0.668 | 0.334 |  | 0.266 | 0.345 | 0.28
NCI-H322M | 0.582 | 0.595 | 0.585 | 0.566 | 0.484 | 0.434 | 0.493 | 0.499 | 0.499 | 0.732 | 0.775 | 0.766 | 0.829 | 0.829 | 0.741 | 0.797 | 0.72 | 0.765 | 0.625
NCI-H358 | 0.374 | 0.53 | 0.412 | 0.391 | 0.112 | 0.117 | 0.119 | 0.0915 | 0.112 | 0.78 | 0.823 | 0.901 | 0.87 | 0.917 | 0.593 | 0.605 | 0.565 | 0.562 | 0.542
NCI-H460 | 1.32 | 1.51 | 0.951 | 1.12 | 0.402 | 0.435 | 0.346 | 0.488 | 0.453 | 0.378 | 0.582 | 0.442 | 0.301 | 0.396 | 0.391 | 0.433 | 0.388 | 0.33 | 0.345
NCI-H520 |  | 0.813 | 0.884 | 0.923 | 0.453 | 0.512 |  | 0.416 | 0.437 | 0.796 | 0.879 | 0.758 | 0.789 | 0.861 | 0.303 | 0.389 | 0.356 | 0.331 | 0.333
NCI-H596 | 1.19 | 1.02 | 1.15 | 0.98 | 0.905 |  | 0.744 | 0.97 | 0.897 | 0.567 | 0.42 | 0.54 | 0.434 | 0.482 | 0.667 | 0.67 | 0.531 | 0.704 | 0.723
NCI-H647 | 1.16 | 1.17 | 1.35 | 0.88 | 0.261 | 0.318 |  | 0.416 | 0.267 | 1.14 |  | 1.08 | 1.05 | 1.25 | 0.439 | 0.507 | 0.508 | 0.587 | 0.543
NCI-H650 | 1.01 |  | 0.947 | 1.16 | 0.689 | 0.768 | 0.691 | 0.731 | 0.696 | 0.984 | 1.09 | 1.21 | 1.13 | 0.958 | 0.376 | 0.468 | 0.305 | 0.32 | 0.328
NCI-H661 | 0.575 | 0.494 | 0.501 | 0.594 | 0.365 | 0.345 | 0.362 | 0.35 | 0.37 | 0.692 | 0.61 | 1.03 | 0.63 | 0.645 | 0.85 | 0.758 | 0.795 | 0.786 | 0.729
NCI-H727 | 0.923 | 0.96 | 0.745 | 0.604 | 0.667 | 0.656 | 0.697 | 0.621 | 0.642 | 0.448 | 0.511 | 0.612 | 0.547 | 0.673 | 0.587 | 0.676 | 0.673 | 0.759 | 0.647
NCI-H838 | 1.02 | 1.03 | 0.979 | 0.996 | 0.258 | 0.264 | 0.341 | 0.275 | 0.233 | 0.983 | 0.804 | 1.04 | 1.03 | 0.99 | 0.75 | 0.829 | 0.794 | 0.812 | 0.728
NCI-H1355 | 1.07 | 1.05 | 1.07 | 1.05 | 0.581 | 0.536 | 0.574 | 0.501 | 0.55 | 0.768 | 0.809 |  | 0.772 | 0.804 | 0.695 | 0.776 | 0.667 | 0.754 | 0.716
NCI-H1395 | 0.924 | 1.26 | 0.923 | 0.895 | 0.727 | 0.731 | 0.63 | 0.774 | 0.741 | 1.11 | 0.996 |  | 1.21 | 1.05 | 0.496 | 0.443 | 0.405 | 0.464 | 0.438
NCI-H1437 | 0.846 | 0.78 | 0.884 | 0.848 | 0.405 | 0.38 | 0.409 | 0.372 | 0.389 | 0.9 | 1.01 | 1.1 | 0.903 | 0.945 | 0.604 | 0.642 | 0.624 | 0.592 | 0.561
NCI-H1651 | 0.714 | 0.925 | 0.919 | 0.844 | 0.624 | 0.752 | 0.628 | 0.725 | 0.579 | 0.882 | 0.98 | 0.92 | 0.935 | 1.04 | 0.174 | 0.197 | 0.17 | 0.185 | 0.173
NCI-H1666 | 0.585 | 0.779 | 0.657 | 0.853 | 0.512 | 0.563 | 0.632 | 0.563 | 0.695 | 0.888 | 0.825 | 0.895 | 0.943 | 1.02 | 0.704 | 0.755 | 0.828 | 0.739 | 0.698

— the supplement of paper PMC10307832
